How the values were obtained:
[1] = for weight loss during the initial desorption cycle: initial desorption scan 50-0.5% RH; for solid form of the product obtained after the GVS analysis (XRPD): XRPD after completion of the GVS isotherm
Protocol: Gravimetric Vapour Isotherm (GVS) Analysis: Sorption isotherms were obtained using a Hiden Isochema moisture sorption analyser (model IGAsorp), controlled by IGAsorp Systems Software V6.50.48. The sample was maintained at a constant temperature (25° C.) by the instrument controls. The humidity was controlled by mixing streams of dry and wet nitrogen, with a total flow of 250 ml·min^−1. The instrument was verified for relative humidity content by measuring three calibrated Rotronic salt solutions (10-50-80%). The weight change of the sample was monitored as a function of humidity by a microbalance (accuracy +/−0.005 mg). A defined amount of sample was placed in a tared mesh stainless steel basket under ambient conditions. The sample was loaded at 40% RH and 25° C. (typical room conditions). The sample was initially held at 50% RH for ˜80 minutes before the initial desorption cycle was commenced. A moisture sorption isotherm was acquired as outlined in Table 1 (2 scans giving 1 complete cycle). The standard isotherm was collected at a constant temperature (25° C.) and at 10% RH intervals over a 0.5-90% range (80 minutes for each humidity level). Data analysis was undertaken in Microsoft Excel.
The sample was recovered after completion of the isotherm and re-analysed by XRPD.

[2] = marketed nanoparticulate formulation; cited from earlier work
[3] = Class IV indicates low solubility and low permeability API; cited from earlier work
[4] = cited from earlier work

| Compound | weight loss during the initial desorption cycle ([1]; GVS, 25° C.) [%] | hygroscopicity of the obtained product ([1]; GVS, 25° C., product obtained after initial desorption) | water adsorbed by the obtained product at high relative humidity ([1]; GVS, 25° C., product obtained after initial desorption (converted to H2O cocrystal), high relative humidity) [%] | solid form of the product obtained after the GVS analysis (XRPD) [1] | weight loss over the total desorption-adsorption-desorption cycles ([1]; GVS, 25° C., 0.5-90% RH) [%] | mean absolute bioavailability [2] | BCS class [3] | solubility in acetonitrile ([4]; acetonitrile) | solubility in ethanol ([4]; ethanol) | solubility in isopropyl acetate ([4]; isopropyl acetate) | solubility in water ([4]; water) |
| --- | --- | --- | --- | --- | --- | --- | --- | --- | --- | --- | --- |
| CCO.C[C@@H](O[C@H]1OCCN(Cc2n[nH]c(=O)[nH]2)[C@H]1c1ccc(F)cc1)c1cc(C(F)(F)F)cc(C(F)(F)F)c1.O=C(O)[C@@H]1CCCN1 | 4.3 | not hygroscopic | 0.5 | entirely the 1:1:1 aprepitant L-proline H2O cocrystal | – | – | – | – | – | – | – |
| CCCO.C[C@@H](O[C@H]1OCCN(Cc2n[nH]c(=O)[nH]2)[C@H]1c1ccc(F)cc1)c1cc(C(F)(F)F)cc(C(F)(F)F)c1.O=C(O)[C@@H]1CCCN1 | 4.4 | – | – | entirely the 1:1:1 aprepitant L-proline H2O cocrystal | 6.3 | – | – | – | – | – | – |
| C[C@@H](O[C@H]1OCCN(Cc2nc(=O)[nH][nH]2)[C@H]1c1ccc(F)cc1)c1cc(C(F)(F)F)cc(C(F)(F)F)c1 [Aprepitant] | – | – | – | – | – | 60-65% | Class IV | slightly soluble | sparingly soluble | sparingly soluble | practically insoluble |

— US9532993B2, “Aprepitant L-proline solvates—compositions and cocrystals” (priority 2011, dated 2017)
